Key:
[1] = test system: Lactobacillus casei; assay: Acid production inhibition, broth-tube technique; details: Table XI, emulsion with 4 parts Tween 20
Description: (§3) The data was compiled through well-known broth tube analysis techniques.
(a)Measured by broth-tube technique.

[2] = test system: oral microorganisms; assay: Growth inhibition in vitro (summary); type: cell-based; details: in words, summary of tables
Description: (§1) Other in vitro evaluations utilized a broth tube analysis of representative anticaries aldehydes incorporated in the vehicles of this invention against cultures of acid producing microorganisms normally present in the mouth. Standard laboratory procedures were utilized throughout to evaluate the acid production inhibition and growth inhibition over the incubation time of up to 24 hours.

[3] = test system: Streptococcus sp. FA-1; assay: Acid production inhibition, broth-tube technique; details: Table XI, emulsion with 4 parts Tween 20
Description: as §3
(a)Measured by broth-tube technique.

[4] = test system: oral microorganisms; assay: Acid production inhibition in vitro (summary); type: cell-based; details: in words, summary of tables
Description: as §1

[5] = test system: Streptococcus sp. GS-5; assay: Acid production inhibition, broth-tube technique; type: cell-based; details: Table XI, emulsion with 4 parts Tween 20
Description: (a)2,4-Hexadienal was prepared as an emulsion with 4 parts of Tween 20.

[6] = test system: Lactobacillus casei and Streptococcus sp. FA-1; assay: Acid-production inhibition by broth-tube assay, 0.1 percent of compound; type: cell-based; details: Table XII; 0.1% of compound
Description: ^(a) Activity was measured by broth-tube assay to determine percent
(§2) acid-production inhibition obtained by Lactobacillus casei and
Streptococcus sp. FA-1 in the presence of 0.1 percent of compound.
^(a) Activity was measured by broth-tube assay to determine percent o
as §2
Streptococcus sp. FA-1 in the presence of 0.1% of compound. Symbols

SMILES: CC=CC=CC=O [2,4-Hexadienal]
- Inhibition of Acid Production ([1]; 0.01 percent): 27%
- Inhibition of Acid Production ([1]; 0.025 percent): 43%
- Inhibition of Acid Production ([1]; 0.05 percent): 88%
- Inhibition of Acid Production ([1]; 0.075 percent): 94%
- Inhibition of Acid Production ([1]; 0.10 percent): 98%
- Growth Inhibition [2]: little or no growth inhibition
- Inhibition of Acid Production ([3]; 0.01 percent): 31%
- Inhibition of Acid Production ([3]; 0.025 percent): 92%
- Inhibition of Acid Production ([3]; 0.05 percent): 99%
- Inhibition of Acid Production ([3]; 0.075 percent): 99%
- Inhibition of Acid Production ([3]; 0.10 percent): 100%
- Acid Production Inhibition [4]: excellent acid production inhibition
- Inhibition of Acid Production ([5]; 0.01 percent): 8%
- Inhibition of Acid Production ([5]; 0.025 percent): 35%
- Inhibition of Acid Production ([5]; 0.05 percent): 97%
- Inhibition of Acid Production ([5]; 0.075 percent): 99%
- Inhibition of Acid Production ([5]; 0.10 percent): 100%
- Activity, Acid-Production Inhibition, % [6]: ++++ (99 to 100)

Source: US4048299A, “Anticaries confectionaries and oral health products” (William Wrigley, Jr. Co., priority 1970, dated 1977)
